# Results from patent US12310975B2, “Modulators of BCL6 proteolysis and associated methods of use” (Arvinas Operations, Inc., priority 2019, dated 2025).
# Target: BCL6 (Homo sapiens (Human), UniProt P41182)
# Experiment: Immunofluorescence high content imaging of BCL6 degradation in T47D cells
# Assay type: cell-based
# Details: class symbols A-D, read-out: EC50 (nM)*
# Outline: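 T47D cells were treated for 3 days at 37 °C with 11-point 3-fold dilutions of bifunctional degrader (final top 0.1 or 1 μM). BCL6 was detected by immunofluorescence after PFA fixation, with Hoechst and cell mask counterstains, and imaged at 10×, 4 fields/well.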
row,DC50 [nM],Compound
1,50 to 100,"CNC(=O)COc1cc2cc(Nc3nc(N4CCC(c5cn(CCOCCOCCOCCOCC(=O)N[C@H](C(=O)N6C[C@H](O)C[C@H]6C(=O)N[C@@H](C)c6ccc(-c7scnc7C)cc6)C(C)(C)C)nn5)CC4)ncc3Cl)ccc2n(C)c1=O [compound 108, (2S,4R)-1-((S)-2-(tert-butyl)-17-(4-(1-(5-chloro-4-((1-methyl-3-(2-(methylamino)-2-oxoethoxy)-2-oxo-1,2-dihydroquinolin-6-yl)amino)pyrimidin-2-yl)piperidin-4-yl)-1H-1,2,3-triazol-1-yl)-4-oxo-6,9,12,15-tetraoxa-3-azaheptadecanoyl)-4-hydroxy-N-((S)-1-(4-(4-methylthiazol-5-yl)phenyl)ethyl)pyrrolidine-2-carboxamide]"
2,> 100,"CNC(=O)COc1cc2cc(Nc3nc(N4CCC(OCCOCCOCCOCCOc5cccc(-c6ccc7c(c6)CN(C6CCC(=O)NC6=O)C7=O)c5)CC4)ncc3Cl)ccc2n(C)c1=O (stereo not drawn) [compound 109, 2-((6-((5-chloro-2-(4-(2-(2-(2-(2-(3-(2-(2,6-dioxopiperidin-3-yl)-1-oxoisoindolin-5-yl)phenoxy)ethoxy)ethoxy)ethoxy)ethoxy)piperidin-1-yl)pyrimidin-4-yl)amino)-1-methyl-2-oxo-1,2-dihydroquinolin-3-yl)oxy)-N-methylacetamide]"
3,> 100,"CNC(=O)COc1cc2cc(Nc3nc(N4CCC(OCCOCCOCCOc5ccccc5OCCOc5ccc6c(c5)CN(C5CCC(=O)NC5=O)C6=O)CC4)ncc3Cl)ccc2n(C)c1=O (stereo not drawn) [compound 110, 2-((6-((5-chloro-2-(4-(2-(2-(2-(2-(2-((2-(2,6-dioxopiperidin-3-yl)-1-oxoisoindolin-5-yl)oxy)ethoxy)phenoxy)ethoxy)ethoxy)ethoxy)piperidin-1-yl)pyrimidin-4-yl)amino)-1-methyl-2-oxo-1,2-dihydroquinolin-3-yl)oxy)-N-methylacetamide]"
4,> 100,"CNC(=O)COc1cc2cc(Nc3nc(N4CCC(OCCOCCOCCCOc5ccccc5CCOc5ccc6c(c5)CN(C5CCC(=O)NC5=O)C6=O)CC4)ncc3Cl)ccc2n(C)c1=O (stereo not drawn) [compound 111, 2-((6-((5-chloro-2-(4-(2-(2-(3-(2-(2-((2-(2,6-dioxopiperidin-3-yl)-1-oxoisoindolin-5-yl)oxy)ethyl)phenoxy)propoxy)ethoxy)ethoxy)piperidin-1-yl)pyrimidin-4-yl)amino)-1-methyl-2-oxo-1,2-dihydroquinolin-3-yl)oxy)-N-methylacetamide]"
5,10 to 50,"CNC(=O)COc1cc2cc(Nc3nc(N4CCC(Cc5cn(CCOc6ccc7c(c6)C(=O)N(C6CCC(=O)NC6=O)C7=O)nn5)CC4)ncc3Cl)ccc2n(C)c1=O (stereo not drawn) [compound 112, 2-((6-((5-chloro-2-(4-((1-(2-((2-(2,6-dioxopiperidin-3-yl)-1,3-dioxoisoindolin-5-yl)oxy)ethyl)-1H-1,2,3-triazol-4-yl)methyl)piperidin-1-yl)pyrimidin-4-yl)amino)-1-methyl-2-oxo-1,2-dihydroquinolin-3-yl)oxy)-N-methylacetamide]"
6,50 to 100,"CNC(=O)COc1cc2cc(Nc3nc(N4CCC(Cc5cn(CCOCCOc6ccc7c(c6)C(=O)N(C6CCC(=O)NC6=O)C7=O)nn5)CC4)ncc3Cl)ccc2n(C)c1=O (stereo not drawn) [compound 113, 2-((6-((5-chloro-2-(4-((1-(2-(2-((2-(2,6-dioxopiperidin-3-yl)-1,3-dioxoisoindolin-5-yl)oxy)ethoxy)ethyl)-1H-1,2,3-triazol-4-yl)methyl)piperidin-1-yl)pyrimidin-4-yl)amino)-1-methyl-2-oxo-1,2-dihydroquinolin-3-yl)oxy)-N-methylacetamide]"
7,50 to 100,"CNC(=O)COc1cc2cc(Nc3nc(N4CCC(c5cn(CCOCC(=O)N[C@H](C(=O)N6C[C@H](O)C[C@H]6C(=O)N[C@@H](C)c6ccc(-c7scnc7C)cc6)C(C)(C)C)nn5)CC4)ncc3Cl)ccc2n(C)c1=O [compound 114, (2S,4R)-1-((S)-2-(2-(2-(4-(1-(5-chloro-4-((1-methyl-3-(2-(methylamino)-2-oxoethoxy)-2-oxo-1,2-dihydroquinolin-6-yl)amino)pyrimidin-2-yl)piperidin-4-yl)-1H-1,2,3-triazol-1-yl)ethoxy)acetamido)-3,3-dimethylbutanoyl)-4-hydroxy-N-((S)-1-(4-(4-methylthiazol-5-yl)phenyl)ethyl)pyrrolidine-2-carboxamide]"
8,10 to 50,"CNC(=O)COc1cc2cc(Nc3nc(N4CCC(c5cn(CCOCCOCC(=O)N[C@H](C(=O)N6C[C@H](O)C[C@H]6C(=O)N[C@@H](C)c6ccc(-c7scnc7C)cc6)C(C)(C)C)nn5)CC4)ncc3Cl)ccc2n(C)c1=O [compound 115, (2S,4R)-1-((S)-2-(2-(2-(2-(4-(1-(5-chloro-4-((1-methyl-3-(2-(methylamino)-2-oxoethoxy)-2-oxo-1,2-dihydroquinolin-6-yl)amino)pyrimidin-2-yl)piperidin-4-yl)-1H-1,2,3-triazol-1-yl)ethoxy)ethoxy)acetamido)-3,3-dimethylbutanoyl)-4-hydroxy-N-((S)-1-(4-(4-methylthiazol-5-yl)phenyl)ethyl)pyrrolidine-2-carboxamide]"
9,10 to 50,"CNC(=O)COc1cc2cc(Nc3nc(N4CCC(c5cn(CCOCCOCCOCC(=O)N[C@H](C(=O)N6C[C@H](O)C[C@H]6C(=O)N[C@@H](C)c6ccc(-c7scnc7C)cc6)C(C)(C)C)nn5)CC4)ncc3Cl)ccc2n(C)c1=O [compound 116, (2S,4R)-1-((S)-2-(tert-butyl)-14-(4-(1-(5-chloro-4-((1-methyl-3-(2-(methylamino)-2-oxoethoxy)-2-oxo-1,2-dihydroquinolin-6-yl)amino)pyrimidin-2-yl)piperidin-4-yl)-1H-1,2,3-triazol-1-yl)-4-oxo-6,9,12-trioxa-3-azatetradecanoyl)-4-hydroxy-N-((S)-1-(4-(4-methylthiazol-5-yl)phenyl)ethyl) pyrrolidine-2-carboxamide]"
10,10 to 50,"CNC(=O)COc1cc2cc(Nc3nc(N4CCC(c5cn(CCOCCOCCOCCOCCOCC(=O)N[C@H](C(=O)N6C[C@H](O)C[C@H]6C(=O)N[C@@H](C)c6ccc(-c7scnc7C)cc6)C(C)(C)C)nn5)CC4)ncc3Cl)ccc2n(C)c1=O [compound 117, (2S,4R)-1-((S)-2-(tert-butyl)-20-(4-(1-(5-chloro-4-((1-methyl-3-(2-(methylamino)-2-oxoethoxy)-2-oxo-1,2-dihydroquinolin-6-yl)amino)pyrimidin-2-yl)piperidin-4-yl)-1H-1,2,3-triazol-1-yl)-4-oxo-6,9,12,15,18-pentaoxa-3-azaicosanoyl)-4-hydroxy-N-((S)-1-(4-(4-methylthiazol-5-yl)phenyl)ethyl)pyrrolidine-2-carboxamide]"
11,50 to 100,"CNC(=O)COc1cc2cc(Nc3nc(N4CCC(OCc5ccc(OCCOCCOCCOc6ccc7c(c6)CN(C6CCC(=O)NC6=O)C7=O)cc5)CC4)ncc3Cl)ccc2n(C)c1=O (stereo not drawn) [compound 118, 2-((6-((5-chloro-2-(4-((4-(2-(2-(2-((2-(2,6-dioxopiperidin-3-yl)-1-oxoisoindolin-5-yl)oxy)ethoxy)ethoxy)ethoxy)benzyl)oxy)piperidin-1-yl)pyrimidin-4-yl)amino)-1-methyl-2-oxo-1,2-dihydroquinolin-3-yl)oxy)-N-methylacetamide]"
12,50 to 100,"CNC(=O)COc1cc2cc(Nc3nc(N4CCC(c5cn(CCOCCOCCOc6ccc7c(c6)C(=O)N(C6CCC(=O)NC6=O)C7=O)nn5)CC4)ncc3Cl)ccc2n(C)c1=O (stereo not drawn) [compound 120, 2-((6-((5-chloro-2-(4-(1-(2-(2-(2-((2-(2,6-dioxopiperidin-3-yl)-1,3-dioxoisoindolin-5-yl)oxy)ethoxy)ethoxy)ethyl)-1H-1,2,3-triazol-4-yl)piperidin-1-yl)pyrimidin-4-yl)amino)-1-methyl-2-oxo-1,2-dihydroquinolin-3-yl)oxy)-N-methylacetamide]"
13,50 to 100,"CNC(=O)COc1cc2cc(Nc3nc(N4CCC(c5cn(CCOCCOCCOCCOCCOc6ccc7c(c6)C(=O)N(C6CCC(=O)NC6=O)C7=O)nn5)CC4)ncc3Cl)ccc2n(C)c1=O (stereo not drawn) [compound 121, 2-((6-((5-chloro-2-(4-(1-(14-((2-(2,6-dioxopiperidin-3-yl)-1,3-dioxoisoindolin-5-yl)oxy)-3,6,9,12-tetraoxatetradecyl)-1H-1,2,3-triazol-4-yl)piperidin-1-yl)pyrimidin-4-yl)amino)-1-methyl-2-oxo-1,2-dihydroquinolin-3-yl)oxy)-N-methylacetamide]"
14,50 to 100,"CNC(=O)COc1cc2cc(Nc3nc(N4CCC(Cc5cn(CCOCC(=O)N[C@H](C(=O)N6C[C@H](O)C[C@H]6C(=O)N[C@@H](C)c6ccc(-c7scnc7C)cc6)C(C)(C)C)nn5)CC4)ncc3Cl)ccc2n(C)c1=O [compound 122, (2S,4R)-1-((S)-2-(2-(2-(4-((1-(5-chloro-4-((1-methyl-3-(2-(methylamino)-2-oxoethoxy)-2-oxo-1,2-dihydroquinolin-6-yl)amino)pyrimidin-2-yl)piperidin-4-yl)methyl)-1H-1,2,3-triazol-1-yl)ethoxy)acetamido)-3,3-dimethylbutanoyl)-4-hydroxy-N-((S)-1-(4-(4-methylthiazol-5-yl)phenyl)ethyl)pyrrolidine-2-carboxamide]"
15,50 to 100,"CNC(=O)COc1cc2cc(Nc3nc(N4CCC(Cc5cn(CCOCCOCCOCC(=O)N[C@H](C(=O)N6C[C@H](O)C[C@H]6C(=O)N[C@@H](C)c6ccc(-c7scnc7C)cc6)C(C)(C)C)nn5)CC4)ncc3Cl)ccc2n(C)c1=O [compound 123, (2S,4R)-1-((S)-2-(tert-butyl)-14-(4-((1-(5-chloro-4-((1-methyl-3-(2-(methylamino)-2-oxoethoxy)-2-oxo-1,2-dihydroquinolin-6-yl)amino)pyrimidin-2-yl)piperidin-4-yl)methyl)-1H-1,2,3-triazol-1-yl)-4-oxo-6,9,12-trioxa-3-azatetradecanoyl)-4-hydroxy-N-((S)-1-(4-(4-methylthiazol-5-yl)phenyl)ethyl)pyrrolidine-2-carboxamide]"
